Among the data in PubChem BioAssay AID1259407 (Chemical Carcinogenesis Research Information System (CCRIS), 2018) are mutagenic call values, retold here.

The series concerns CCRIS mutagenicity, Ames/micronucleus/aberration tests. The series can be described thus: CCRIS mutagenicity studies.
Setting [1] is: Test System: AMES SALMONELLA TYPHIMURIUM, Strain/Indicator: TA97, Metabolic Activation: NONE, Method: PREINCUBATION
The mark [2] stands for this setting: Test System: AMES SALMONELLA TYPHIMURIUM, Strain/Indicator: TA98, Metabolic Activation: NONE, Method: PREINCUBATION
Where [3] appears, read: Test System: AMES SALMONELLA TYPHIMURIUM, Strain/Indicator: TA100, Metabolic Activation: NONE, Method: PREINCUBATION
Where [4] appears, read: Test System: AMES SALMONELLA TYPHIMURIUM, Strain/Indicator: TA1535, Metabolic Activation: NONE, Method: PREINCUBATION
The mark [5] stands for this setting: Test System: AMES SALMONELLA TYPHIMURIUM, Strain/Indicator: TA1537, Metabolic Activation: NONE, Method: PREINCUBATION

The structures appear in SMILES notation. Active and inactive are the calls of the source. How the calls were made is not given here.

Regarding `CNc1ccc(O)cc1`, the mutagenic call is “inactive; negative” (Test System: AMES SALMONELLA TYPHIMURIUM, Strain/Indicator: TA97, Metabolic Activation: HAMSTER, LIVER, AROCLOR 1254 (10%), Method: PREINCUBATION); “inactive; negative” under setting [1]; “active; positive” (Test System: AMES SALMONELLA TYPHIMURIUM, Strain/Indicator: TA97, Metabolic Activation: RAT, LIVER, S-9, AROCLOR 1254 (10%), Method: PREINCUBATION); “inactive; negative” (Test System: AMES SALMONELLA TYPHIMURIUM, Strain/Indicator: TA98, Metabolic Activation: HAMSTER, LIVER, S-9, AROCLOR 1254 (10%), Method: PREINCUBATION); “inactive; negative” under setting [2]; “inactive; negative” (Test System: AMES SALMONELLA TYPHIMURIUM, Strain/Indicator: TA98, Metabolic Activation: RAT, LIVER, S-9, AROCLOR 1254 (10%), Method: PREINCUBATION). The mutagenic call by setting is: under setting [3], “inactive; negative”; (Test System: AMES SALMONELLA TYPHIMURIUM, Strain/Indicator: TA100, Metabolic Activation: RAT, LIVER, S-9, AROCLOR 1254 (10%), Method: PREINCUBATION) “inactive; negative”; (Test System: AMES SALMONELLA TYPHIMURIUM, Strain/Indicator: TA1535, Metabolic Activation: HAMSTER, LIVER, S-9, AROCLOR 1254 (10%), Method: PREINCUBATION) “inactive; negative”; under setting [4], “inactive; negative”; (Test System: AMES SALMONELLA TYPHIMURIUM, Strain/Indicator: TA1535, Metabolic Activation: RAT, LIVER, S-9, AROCLOR 1254 (10%), Method: PREINCUBATION) “inactive; negative”; (Test System: AMES SALMONELLA TYPHIMURIUM, Strain/Indicator: TA1537, Metabolic Activation: HAMSTER, LIVER, S-9, AROCLOR 1254 (10%), Method: PREINCUBATION) “active; positive”. Also, the mutagenic call is “inactive; negative” under setting [5] and “active; positive” (Test System: AMES SALMONELLA TYPHIMURIUM, Strain/Indicator: TA1537, Metabolic Activation: RAT, LIVER, S-9, AROCLOR 1254 (10%), Method: PREINCUBATION).

Regarding `CCOC(=O)C1C(C=C(C)C)C1(C)C` (configuration not stated), the mutagenic call reads like this: (Test System: AMES SALMONELLA TYPHIMURIUM, Strain/Indicator: TA98, Metabolic Activation: NONE, Method: STANDARD PLATE) “inactive; negative”; (Test System: AMES SALMONELLA TYPHIMURIUM, Strain/Indicator: TA98, Metabolic Activation: RAT, LIVER, S-9, AROCLOR 1254, Method: STANDARD PLATE) “inactive; negative”; (Test System: AMES SALMONELLA TYPHIMURIUM, Strain/Indicator: TA100, Metabolic Activation: NONE, Method: STANDARD PLATE) “inactive; negative”; (Test System: AMES SALMONELLA TYPHIMURIUM, Strain/Indicator: TA100, Metabolic Activation: RAT, LIVER, S-9, AROCLOR 1254, Method: STANDARD PLATE) “inactive; negative”; (Test System: AMES SALMONELLA TYPHIMURIUM, Strain/Indicator: TA1535, Metabolic Activation: NONE, Method: STANDARD PLATE) “inactive; negative”; (Test System: AMES SALMONELLA TYPHIMURIUM, Strain/Indicator: TA1535, Metabolic Activation: RAT, LIVER, S-9, AROCLOR 1254, Method: STANDARD PLATE) “inactive; negative”. Moreover, the mutagenic call reads like this: (Test System: AMES SALMONELLA TYPHIMURIUM, Strain/Indicator: TA1537, Metabolic Activation: NONE, Method: STANDARD PLATE) “inactive; negative”; (Test System: AMES SALMONELLA TYPHIMURIUM, Strain/Indicator: TA1537, Metabolic Activation: RAT, LIVER, S-9, AROCLOR 1254, Method: STANDARD PLATE) “inactive; negative”; (Test System: E. COLI, Strain/Indicator: WP2, Metabolic Activation: NONE, Method: STANDARD PLATE) “inactive; negative”; (Test System: E. COLI, Strain/Indicator: WP2, Metabolic Activation: RAT, LIVER, S-9, AROCLOR 1254, Method: STANDARD PLATE) “inactive; negative”.

For the compound `COc1cc(OC)c2c(=O)c3c(O)ccc(OC)c3oc2c1`, the mutagenic call is “inactive; negative” under setting [1]; “active; positive” (Test System: AMES SALMONELLA TYPHIMURIUM, Strain/Indicator: TA97, Metabolic Activation: RAT, LIVER, S-9, PHENOBARBITAL AND 5,6-BENZOFLAVONE, Method: PREINCUBATION); “inactive; negative” (Test System: AMES SALMONELLA TYPHIMURIUM, Strain/Indicator: TA98, Metabolic Activation: RAT, LIVER, S-9, PHENOBARBITAL AND 5,6-BENZOFLAVONE, Method: PREINCUBATION); “inactive; negative” (Test System: AMES SALMONELLA TYPHIMURIUM, Strain/Indicator: TA100, Metabolic Activation: RAT, LIVER, S-9, PHENOBARBITAL AND 5,6-BENZOFLAVONE, Method: PREINCUBATION); “active; positive” (Test System: AMES SALMONELLA TYPHIMURIUM, Strain/Indicator: TA2637, Metabolic Activation: RAT, LIVER, S-9, PHENOBARBITAL AND 5,6-BENZOFLAVONE, Method: PREINCUBATION).

As to `CCc1c2ccccc2cc2c1c1c(c3ccccc32)N1`, the mutagenic call under setting [2] was “active; positive”.

Take `CC(C)(c1ccccc1)c1ccc(O)cc1`: the mutagenic call was “inactive; negative” under setting [2]; “inactive; negative” (Test System: AMES SALMONELLA TYPHIMURIUM, Strain/Indicator: TA98, Metabolic Activation: RAT LIVER S-9, PHENOBARBITAL AND BETA-NAPHTHOFLAVONE, Method: PREINCUBATION); “inactive; negative” under setting [3]; “inactive; negative” (Test System: AMES SALMONELLA TYPHIMURIUM, Strain/Indicator: TA100, Metabolic Activation: RAT LIVER S-9, PHENOBARBITAL AND BETA-NAPHTHOFLAVONE, Method: PREINCUBATION); “inactive; negative” under setting [4]; “inactive; negative” (Test System: AMES SALMONELLA TYPHIMURIUM, Strain/Indicator: TA1535, Metabolic Activation: RAT LIVER S-9, PHENOBARBITAL AND BETA-NAPHTHOFLAVONE, Method: PREINCUBATION). For the same compound, the mutagenic call is “inactive; negative” under setting [5]; “inactive; negative” (Test System: AMES SALMONELLA TYPHIMURIUM, Strain/Indicator: TA1537, Metabolic Activation: RAT LIVER S-9, PHENOBARBITAL AND BETA-NAPHTHOFLAVONE, Method: PREINCUBATION); “inactive; negative” (Test System: AMES SALMONELLA TYPHIMURIUM, Strain/Indicator: TA1538, Metabolic Activation: NONE, Method: PREINCUBATION); “inactive; negative” (Test System: AMES SALMONELLA TYPHIMURIUM, Strain/Indicator: TA1538, Metabolic Activation: RAT LIVER S-9, PHENOBARBITAL AND BETA-NAPHTHOFLAVONE, Method: PREINCUBATION); “inactive; negative” (Test System: E.COLI, Strain/Indicator: WP2UVRA, Metabolic Activation: NONE, Method: PREINCUBATION); “inactive; negative” (Test System: E.COLI, Strain/Indicator: WP2UVRA, Metabolic Activation: RAT LIVER S-9, PHENOBARBITAL AND BETA-NAPHTHOFLAVONE, Method: PREINCUBATION).
